From patent EP1285971B1, “Methods for the phenotypic and genotypic assessment of the drug sensitivity of HIV integrase variants” (Tibotec Pharmaceuticals Ltd., priority 2001, dated 2003)
pEC50: −log10 of the molar value.

Tested on: pHXB2D control
Assay: Antiviral experiment with control clone, transfected directly without recombination
Assay type: cell-based, HIV
Details: no recombination; for fold change: fold change in EC50
Protocol: Recombinant virus was produced by co-transfection by electroporation of the SmaI-linearized IN-deletion construct and the integrase amplicon into MT4 cells or MT4 cells equipped with an LTR driven reporter gene construct. Production of recombinant virus was evaluated by scoring the cytopathogenic effect (CPE) that is induced by HIV-infection of MT4 cells or by the LTR-driven reporter signal induced by HIV infection in MT4 reporter cells. Green fluorescent protein was used as the reporter signal. Viruses are harvested and titrated at maximum CPE. For recombination the deletion construct pSV40HXB2D-ΔIN was used. Recombination experiments were performed with amplicon from wildtype HIV IIIB and NL4.3, and patient sample 146514 generated by both primer sets. For each recombination 2 µg amplicon was co-transfected with 10 µg SmaI-digested pSV40HXB2D-ΔIN by electroporation into MT4-LTR-EGFP cells. Virus stocks were titrated and tested in an antiviral experiment on a reference panel including nucleoside reverse transcriptase inhibitors (NRTI), non- nucleoside reverse transcriptase inhibitors (NNRTI), protein inhibitor (PR), entry and integrase (IN) inhibitors (Table 2). Recombination was checked by nucleic acid sequence analysis using protocols known to the person skilled in the art. Sequencing primers which can be used are In_seq1F (SEQ ID NO 17), In_seq2F (SEQ ID NO 18), In_seq3F (SEQ ID NO 19), IN_seq1R (SEQ ID NO 20), IN_seq2R (SEQ ID NO 21), and IN_seq3R (SEQ ID NO 22). The recombinant virus was evaluated in an anti-viral assay with a panel of reference compounds including nucleoside RT inhibitors (NRTI) Zidovudine (AZT) Lamivudine (3TC), Didanosine (DDI), non-nucleoside RT inhibitors (NNRTI) Nevirapine (NVP), 4-[[6-amino-5-bromo-2-[(4-cyanophenyl)amino]-4-pyrimidinyl]oxy]-3,5-dimethyl-benzonitrile also referred to as compound 1, 4-[[6-amino-5-bromo-2-[(4-cyanophenyl)amino]-4-pyrimidinyl]oxy]-3,5-dimethyl-Benzonitrile, also referred to as compound 2 protease inhibitors (PR) Saquinavir (SQV), Amprenavir (APV), Indinavir (IDV), [[…]-3-[[(4-aminophenyl)sulfonyl](2-methylpropyl)amino]-2-hydroxy-1-(phenylmethyl)-propyl]-, (3R,3aS,6aR)-hexahydrofuro[2,3-b]furan-3-yl ester carbamic acid also referred to as compound 3, entry-inhibitors (Entry)(AMD3100, DS5000, ATA), and integrase inhibitor (IN) 2-(1-methylethyloxy)-α,γ dioxo-5-(phenylmethyl)-benzenebutanoic acid also referred to as compound 4. […] AVE means antiviral experiment. Type means the type of inhibitor investigated. The fold change is the fold change in EC50. WT III B means that a portion of the wild type IIIB strain has been amplified and used in the antiviral experiment, including transfection and generation of recombinant virus. NL 4-3 means the integrase gene of this laboratory strain has been amplified and subsequently used for the antiviral experiment. […] No recombination has been effected using this HIV clone. pHXB2D has been used directly for transfection and antiviral experiment. Primer set 3 consist of outer primers 5'EGINT3 (SEQ ID NO 4) and 3'EGINT10 (SEQ ID NO 11), and inner primers 5'EGINT4 (SEQ ID NO 5) and 3'EGINT6 (SEQ ID NO 7). Primer set 4 consist of outer primers 5'EGINT3 (SEQ ID NO 4) and 3'EGINT10 (SEQ ID NO 11), and inner primers 5'EGINT5 […] and 3'EGINT6 (SEQ ID NO 7). Other suitable integrase inhibitors include L-731,988, diketo-acids and S-1360.

[1] = Human immunodeficiency virus 1, AVE 6, pHXB2D control

Q: How did the fold change (AVE 6, pHXB2D control) turn out when `c1cc(CN2CCCNCCNCCCNCC2)ccc1CN1CCCNCCNCCCNCC1` [AMD3100] was run?
A: 1,0

Q: And the pEC50 [1]?
A: 7.25

Q: With `CC(C)CN(C[C@@H](O)[C@H](Cc1ccccc1)NC(=O)O[C@H]1CCOC1)S(=O)(=O)c1ccc(N)cc1` [APV, Amprenavir] as the compound, how does the fold change (AVE 6, pHXB2D control) read?
A: 1,0

Q: What about the pEC50 [1] of the same compound?
A: 7.08

Q: `O=C(O)C1=CC(=C(c2ccc(O)c(C(=O)O)c2)c2ccc(O)c(C(=O)O)c2)C=CC1=O` [ATA] was tested. Which pEC50 (AVE 6, pHXB2D control) did it give?
A: 5.68

Q: And the fold change (AVE 6, pHXB2D control)?
A: 1,0

Q: Which fold change (AVE 6, pHXB2D control) does the source give for `Cc1cn([C@H]2C[C@H](N=[N+]=[N-])[C@@H](CO)O2)c(=O)[nH]c1=O` [AZT, Zidovudine] here?
A: 1,0

Q: What about the pEC50 [1] of the same compound?
A: 6.78

Q: With `Cc1cc(C#N)cc(C)c1Oc1nc(Nc2ccc(C#N)cc2)nc(N)c1Br` [Compound 1, 4-[[6-amino-5-bromo-2-[(4-cyanophenyl)amino]-4-pyrimidinyl]oxy]-3,5-dimethyl-benzonitrile] as the compound, how does the pEC50 (AVE 6, pHXB2D control) read?
A: 9.00

Q: What about the fold change (AVE 6, pHXB2D control) of the same compound?
A: 1,0

Q: `Cc1cc(C#N)cc(C)c1Oc1nc(Nc2ccc(C#N)cc2)nc(N)c1Br` [Compound 2, 4-[[6-amino-5-bromo-2-[(4-cyanophenyl)amino]-4-pyrimidinyl]oxy]-3,5-dimethyl-Benzonitrile] was tested. Which pEC50 (AVE 6, pHXB2D control) did it give?
A: 8.51

Q: And the fold change (AVE 6, pHXB2D control)?
A: 1,0

Q: `Nc1ccn([C@@H]2CS[C@H](CO)O2)c(=O)n1` [Compound 3TC, Lamivudine] was tested. Which fold change (AVE 6, pHXB2D control) did it give?
A: 1,0

Q: And the pEC50 [1]?
A: 5.86

Q: For `CC(C)Oc1ccc(Cc2ccccc2)cc1C(=O)CC(=O)C(=O)O` [Compound 4, 2-(1-methylethyloxy)-α,γ dioxo-5-(phenylmethyl)-benzenebutanoic acid], which fold change (AVE 6, pHXB2D control) is on record?
A: 1,0

Q: What about the pEC50 [1] of the same compound?
A: 6.56

Q: How did the fold change (AVE 6, pHXB2D control) turn out when `O=c1[nH]cnc2c1ncn2[C@H]1CC[C@@H](CO)O1` [DDI, Didanosine] was run?
A: 1,0

Q: What about the pEC50 [1] of the same compound?
A: 5.32

Q: For `CC(C)(C)NC(=O)[C@@H]1CN(Cc2cccnc2)CCN1C[C@@H](O)C[C@@H](Cc1ccccc1)C(=O)N[C@H]1c2ccccc2C[C@H]1O` [IDV, Indinavir], which fold change (AVE 6, pHXB2D control) is on record?
A: 1,0

Q: And the pEC50 [1]?
A: 7.36

Q: `Cc1ccnc2c1NC(=O)c1cccnc1N2C1CC1` [NVP, Nevirapine] was tested. Which fold change (AVE 6, pHXB2D control) did it give?
A: 1,0

Q: What about the pEC50 [1] of the same compound?
A: 7.06

Q: How did the fold change (AVE 6, pHXB2D control) turn out when `CC(C)c1nc(CN(C)C(=O)N[C@H](C(=O)N[C@@H](Cc2ccccc2)C[C@H](O)[C@H](Cc2ccccc2)NC(=O)OCc2cncs2)C(C)C)cs1` [RTV, ritonavir] was run?
A: 1,0

Q: And the pEC50 [1]?
A: 6.83

Q: What does the source list for `CC(C)(C)NC(=O)[C@@H]1C[C@@H]2CCCC[C@@H]2CN1C[C@@H](O)[C@H](Cc1ccccc1)NC(=O)[C@H](CC(N)=O)NC(=O)c1ccc2ccccc2n1` [SQV, Saquinavir]?
A: fold change (AVE 6, pHXB2D control): 1,0; pEC50 [1]: 7.70
